The text below walks through data of BindingDB's records for doi:10.7270/Q2D798VP (Broad Institute, 2009).

Bounds are passed on as bounds.

The target of the assay is T1, Zinc finger protein mex-5 (Caenorhabditis elegans, UniProt Q9XUB2).
T1 sequence (Q9XUB2 whole entry): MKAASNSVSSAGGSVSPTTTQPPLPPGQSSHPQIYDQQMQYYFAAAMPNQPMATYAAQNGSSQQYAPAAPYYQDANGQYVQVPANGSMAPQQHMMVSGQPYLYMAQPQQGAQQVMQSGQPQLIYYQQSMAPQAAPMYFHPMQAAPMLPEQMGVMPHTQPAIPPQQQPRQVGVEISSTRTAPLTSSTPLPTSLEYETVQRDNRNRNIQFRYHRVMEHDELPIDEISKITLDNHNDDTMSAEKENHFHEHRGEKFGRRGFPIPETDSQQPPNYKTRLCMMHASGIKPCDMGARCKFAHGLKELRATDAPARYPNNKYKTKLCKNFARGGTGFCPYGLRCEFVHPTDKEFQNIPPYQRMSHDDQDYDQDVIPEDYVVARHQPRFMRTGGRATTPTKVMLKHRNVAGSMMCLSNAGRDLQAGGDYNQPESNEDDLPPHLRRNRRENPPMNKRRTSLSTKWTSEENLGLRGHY
Put plainly: MEX-5/TCR-2 RNA interaction inhibitors, dose response, biochemical, C. elegans, fluorescence polarization (AID 1960). (In general: Fluorescence polarisation rises when a labelled molecule tumbles more slowly, as on binding a larger partner.)
As for `O=C(O)c1ccccc1N=NCc1c(Sc2nnnn2-c2ccccc2)nc2ccccn2c1=O` [MLS000775267], a half-maximal response (EC50) required 116 µM.

`CCCCOC(=O)c1ccc(NN=C2C(=O)NC(=O)C(C#N)=C2C)cc1` [MLS000778379]: the EC50 is greater than 300 µM.

Molecule `COc1cc(C2C3=C(CC(C)(C)CC3=O)OC(=N)C2C#N)ccc1OCCN1CCOCC1` (configuration not stated) [MLS000779948] returned an EC50 greater than 300 µM.

Take `C=c1c(C(=O)OC)c(O)c(=Cc2ccco2)n1-c1ccccc1` [MLS000780287]: the EC50 turned out to be 5.06 µM.

In the case of `COc1ccc(C(C)N=Nc2nc3ccccc3nc2C)cc1OC` (configuration not stated) [MLS001029936], the EC50 was 66.5 µM.

The molecule `CC1(C)c2[nH]c3ccccc3c2Cc2c(O)n(-c3ccc(F)cc3F)c(=O)n21` [MLS001065879] returned an EC50 of 46.8 µM.

`O=C(/C=C/c1ccco1)NCC(=O)NNC1=c2ccccc2=NC1=O` [MLS001075666] returned an EC50 of 5.49 µM.

For the molecule `O=C1N=C(O)C(C2=c3cc([N+](=O)[O-])ccc3=NC2=O)S1` (configuration not stated) [MLS001163276], the EC50 came to 21.5 µM.

`CCOC(=O)C1=C(C)N=c2sc(=Cc3ccc(OCC(=O)O)cc3)c(=O)n2C1c1ccc(OC)cc1OC` (configuration not stated) [MLS001179101]: a half-maximal response (EC50) required 60.9 µM.

`N#CC1C(=N)OC2=C(C(=O)CCC2)C1c1cc2c(cc1Cl)OCO2` (configuration not stated) [MLS001183950] yielded an EC50 greater than 300 µM.

In the case of `Cc1cc(=O)[nH]c(N=NCc2ccc(O)c(O)c2)n1` [MLS001194906], the EC50 is 125 µM.

With `COc1ccc(N2C(=O)NC(=O)C(=Cc3cn(C)c4ccccc34)C2=O)cc1` [MLS001196573], the EC50 came to 1.15 µM.

`COc1ccc(OC)c(N2C(=O)C(=Cc3ccco3)C(=O)NC2=S)c1` [MLS001197216] displayed an EC50 of 10.8 µM.

Molecule `Cc1ccccc1NN=C1C(=O)N(C)c2ccccc21` [MLS001203477] came in with an EC50 greater than 300 µM.

`COc1ccc(N2C(=O)C(=Cc3ccco3)C(=O)NC2=S)cc1` [MLS001204507] displayed an EC50 of 3.9 µM.

Turning to `CCOc1ccc(N2C(=O)C(=Cc3ccco3)C(=O)NC2=S)cc1` [MLS001205052], the EC50 came to 178 µM.

`O=[N+]([O-])c1cc/c(=N\c2ccccc2O)c2no[nH]c1-2` [MLS001206694] returned an EC50 of 28.2 µM.

Turning to `COc1cc2c(cc1C1C3=C(CC(C)(C)CC3=O)OC(=N)C1C#N)OCO2` (configuration not stated) [MLS001208406], the EC50 was greater than 300 µM.

`O=C1C([N+](=O)[O-])=CC(Cl)=CC1/C=N/NC(=O)C(O)(c1ccccc1)c1ccccc1` (configuration not stated) [N''''-[(E)-(3-chloro-5-nitro-6-oxocyclohexa-2,4-dien-1-ylidene)methyl]-2-hydroxy-2,2-diphenylacetohydrazide] yielded an EC50 of 40.2 µM.

Turning to `O=C(NN=Cc1c(O)n(-c2ccccc2)c(=S)[nH]c1=O)c1ccc(O)cc1` [N'-[(1Z)-(4,6-dioxo-1-phenyl-2-thioxohexahydropyrimidin-5-yl)methylene]-4-hydroxybenzohydrazide], the response was half-maximal at 63.7 µM (EC50).

For `O=C(N/N=C/C1C=C(Cl)C=C([N+](=O)[O-])C1=O)c1ccc2c(c1)OCO2` (configuration not stated) [N'-[(E)-(3-chloranyl-5-nitro-6-oxidanylidene-cyclohexa-2,4-dien-1-ylidene)methyl]-1,3-benzodioxole-5-carbohydrazide], the EC50 is 241 µM.

As to `COc1cccc(C=NNC(=O)c2ccc(=O)[nH]n2)c1O` [N'-[(E)-(5-methoxy-6-oxocyclohexa-2,4-dien-1-ylidene)methyl]-6-oxo-1H-pyridazine-3-carbohydrazide], the EC50 amounted to 12.6 µM.

With `O=C1NC(=O)N(CCc2ccc(F)cc2)C(=O)C1=CNNC(=O)c1ccccc1` [N'-[(E)-[1-[2-(4-fluorophenyl)ethyl]-2,4,6-trioxo-1,3-diazinan-5-ylidene]methyl]benzohydrazide], the EC50 was greater than 300 µM.

`O=C1NC(=O)N(CCc2ccccc2)C(=O)C1=CNNC(=O)c1ccncc1` [N'-[(E)-[2,4,6-trioxo-1-(2-phenylethyl)-1,3-diazinan-5-ylidene]methyl]-4-pyridinecarbohydrazide] gave a half-maximal effective concentration (EC50) greater than 300 µM.

For `C/N=c1\ccc2nc3ccccc3n(C)c-2c1` [N,10-dimethyl-2-phenazin-10-iumamine;perchlorate], the midpoint of the response, the EC50, lay at 14.8 µM.

For `O=[N+]([O-])c1ccc(/N=N/c2ncc[nH]2)cc1` [N-(imidazol-2-ylideneamino)-4-nitroaniline], a half-maximal effect (EC50) was put at 20.7 µM.

`COc1ccc(N=C(C(=C(Cl)C(Cl)Cl)[N+](=O)[O-])n2nnc3ccccc32)cc1` [N-[(1E)-1-(1-benzotriazolyl)-3,4,4-trichloro-2-nitrobuta-1,3-dienyl]-4-methoxyaniline] registered a 50% effective concentration (EC50) of 49.1 µM.

Molecule `CN(C)c1ccc(N=Cc2nc(-c3ccccc3)oc2O)cc1` [SMR000009577] returned an EC50 of 5.22 µM. Against the preceding molecule, the EC50 is about 9.4-fold lower.

For `COc1cccc(C2C3=C(CC(c4ccco4)CC3=O)OC(=N)C2C#N)c1OCc1ccc(F)cc1` (configuration not stated) [SMR000021029], the EC50 is greater than 300 µM.

The molecule `CCN(CC)c1ccc(C=NC(C#N)C(=N)C#N)cc1` (configuration not stated) [SMR000023871] gave a half-maximal effective concentration (EC50) of 114 µM.

In turn, `COc1ccc(C2CC(c3ccc(Br)s3)=Nc3ncnn32)cc1OC` (configuration not stated) [SMR000032927] showed an EC50 of 6.36 µM.

For the molecule `Cc1ccc(C2C3CN(C(C)C)CCC3=C(C#N)C(=N)C2(C#N)C#N)cc1` (configuration not stated) [SMR000034220], a half-maximal response (EC50) required 8.29 µM. The EC50 values of the last two molecules are within 1.5-fold of each other.

The molecule `Cc1cc(O)c(C(C)C)cc1Nc1csc(=O)[nH]1` [SMR000034713] registered an EC50 of 34.6 µM.

Regarding `CC1=NC(c2ccccc2)C(C#N)(C#N)C(C#N)(C#N)C1` (configuration not stated) [SMR000037705], it took 2.46 µM to reach a half-maximal effect (EC50).

Regarding `COc1cc(OC)c(C2C3=C(CC(C)(C)CC3=O)OC(=N)C2C#N)cc1OC` (configuration not stated) [SMR000054706], the EC50 is greater than 300 µM.

As to `C=c1[nH]n(-c2cccc(C(=O)O)c2)c(=O)c1=CC=Cc1ccco1` [SMR000113614], the EC50 was 23.7 µM.

`COc1ccc(C=C2CCCC(C(=O)C(F)(F)F)C2=O)cc1` (configuration not stated) [SMR000142699] registered an EC50 of 41.4 µM.

Molecule `Oc1ccc2ccccc2c1CN=Nc1nnc(-c2ncc[nH]2)c2ccccc12` [SMR000151639] showed an EC50 of 2.45 µM.

For `C(=NNC(=Nc1ccccc1)c1ccccn1)c1ccccn1` [SMR000174637], the EC50 was found to be 94.4 µM.

Turning to `CN1CCC2(CC1)C(C#N)C(=N)NC(=S)C2C#N` (configuration not stated) [SMR000211480], a half-maximal effect (EC50) was put at 8.53 µM. Against the preceding molecule, the EC50 is about 11-fold lower.

In turn, `O=C(c1ccccc1)c1[nH]n(-c2ccccc2)c2c(O)n(-c3ccccc3Cl)c(=O)c1-2` [SMR000212371] yielded an EC50 greater than 300 µM.

In the case of `COc1ccc(N=CCC(=O)c2ccc(C)cc2)cc1OC` [SMR000269732], the EC50 was greater than 300 µM.

Turning to `CCCCN1C(=O)/C(=C2/Sc3ccccc3N2C)SC1=Nc1nnc[nH]1` [SMR000282142], the concentration for a half-maximal effect (EC50) worked out at 39.1 µM.

With `COC(=O)c1ccc(-n2c(C)cc(CN=Nc3nc(C)cc(=O)[nH]3)c2C)cc1` [SMR000364461], the half-maximal effective concentration (EC50) was greater than 300 µM.

`O=C(N/N=C/C1C=C(Cl)C=C([N+](=O)[O-])C1=O)c1ccccc1NS(=O)(=O)c1cccs1` (configuration not stated) [SMR000364876]: the midpoint of the response, the EC50, lay at 1.56 µM. This counts as single-digit micromolar.

`Cc1cc(C(=O)NN=CC2C=C(Cl)C=C([N+](=O)[O-])C2=O)[nH]n1` (configuration not stated) [SMR000414694]: the EC50 was greater than 300 µM.

`O=C1NC(=O)N(CCc2ccccc2)C(=O)C1=CNNC(=O)c1ccccc1` [SMR000433912] had an EC50 of 150 µM.

In the case of `Cn1c(=O)[nH]c(=O)c2c1nc(N=NC=C(Br)Cc1ccccc1)n2CCO` [SMR000436442], a half-maximal effect (EC50) was put at 55.5 µM.

`COc1ccccc1N1C(=O)NC(=O)C(=Cc2c[nH]c3ccccc23)C1=O` [SMR000495900]: the EC50 is greater than 300 µM.

Molecule `Cc1cc(-c2ccccc2)nc(N=NCc2ccc(O)cc2O)n1` [SMR000513422] showed an EC50 of 54 µM.

Molecule `Cc1[nH]n(C(N)=S)c(=O)c1N=Nc1c(Cl)cc([N+](=O)[O-])cc1Cl` [SMR000514008] returned an EC50 of 85.9 µM.

In turn, `CC1(C)CC(=O)C2=C(C1)OC(=N)C(C#N)C2c1ccc2c(c1)OCO2` (configuration not stated) [SMR000514966] came in with an EC50 greater than 300 µM.

The molecule `O=C1C=CC(/C=C/c2nc(O)c([N+](=O)[O-])c(=O)[nH]2)C=C1O` (configuration not stated) [SMR000524347] gave an EC50 of 179 µM.

In turn, `c1ccc(C2=NNC(c3ccccn3)N=N2)nc1` (configuration not stated) [SMR000549436] gave an EC50 of 22.4 µM.

For the molecule `CN(C)c1ccc(C=NN(CCC(=O)NC(C)(C)C)C2=NS(=O)(=O)c3ccccc32)cc1` [SMR000556213], the EC50 is 36.3 µM.

In turn, `O=C1NC(=O)N(c2ccc(F)cc2)C(=O)C1=Cc1c[nH]c2ccccc12` [SMR000556295] returned an EC50 greater than 300 µM.

Take `Cn1cc(C=C2C(=O)NC(=O)N(c3ccccc3)C2=O)c2ccccc21` [SMR000559087]: it took 4.34 µM to reach a half-maximal effect (EC50).

Regarding `O=C1N=C(N2C=CC(c3ccncc3)C=C2)C(=CN=NC(=O)c2ccccc2O)S1` [SMR000646350], the EC50 was 10.7 µM. Against the preceding molecule, the EC50 is about 2.5-fold higher.

`CN(C)[C@@H]1C(=O)C(C(N)=O)C(=O)[C@@]2(O)C(=O)C3C(=O)c4c(O)cccc4[C@@](C)(O)C3C(O)C12` (some centres not stated) [SMR000875333] displayed an EC50 of 20.5 µM.

With `C=CC(=O)N1CCCC(n2nc(-c3ccc(Oc4ccccc4)cc3)c3c(N)ncnc32)C1` (configuration not stated) [US8497277, 4], the EC50 was greater than 300 µM.

On to `COC(=O)Cn1cc(C=C2C(=O)NC(=O)N(c3ccccc3)C2=O)c2ccccc21` [[3-(2,4,6-Trioxo-1-phenyl-tetrahydro-pyrimidin-5-ylidenemethyl)-indol-1-yl]-acetic acid methyl ester], for which the EC50 was 143 µM.

`CCOC(=O)c1c(NC=C2C(=O)NC(=S)NC2=O)sc(C)c1C` [ethyl 2-[[4,6-bis(oxidanylidene)-2-sulfanylidene-1,3-diazinan-5-yl]methylideneamino]-4,5-dimethyl-thiophene-3-carboxylate]: the EC50 is greater than 300 µM.

Broadly, the EC50 is the concentration that produces a half-maximal response. Low readings indicate a more potent agent, high ones a less potent agent.
